Consider 12 compounds from patent US8975417B2, “Pyrazolopyrrolidine derivatives and their use in the treatment of disease” (Novartis AG, priority 2013, dated 2015).

Usually IC50 stands for the concentration at which inhibition is half-maximal. A low value points to inhibition by little substance.

The target of assay [1] is His-Brd4(44-477) (Homo sapiens (Human), UniProt O60885). Put plainly: TR-FRET in-vitro binding assay for BRD4. To be noted: biochemical. The essentials:
(§1)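 Bromodomain protein (45 nM in its addition solution) and tetra-acetylated histone H4 peptide (AcK5/8/12/16; 60 nM in its addition solution) were incubated with compounds for 35 min at 30 °C in 50 mM HEPES pH 7.5, 50 mM NaCl, 0.005% Tween20, 0.1% BSA. Eu-anti-His6 plus streptavidin-allophycocyanin detection followed, with TR-FRET read-out.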

Assay [2] concerns the target His-Brd2(60-472) (Homo sapiens (Human), UniProt P25440). Put plainly: TR-FRET in-vitro binding assay for BRD2. To be noted: biochemical. Put shortly:
as §1
In general terms: TR-FRET usually uses a lanthanide donor and a delayed reading to cut background.

Assay [3] addresses His-Brd3(20-477) (Homo sapiens (Human), UniProt Q15059). Put plainly: TR-FRET in-vitro binding assay for BRD3. The note with it: biochemical. The essentials: as §1
The target of assay [4] is His-CREBBP (1081-1197) bromodomain (Homo sapiens (Human), UniProt Q92793). Put plainly: AlphaScreen in-vitro binding assay for CREBBP. To be noted: biochemical. Put shortly:
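Ni-chelate acceptor and streptavidin donor beads (45 µg/mL each, in 50 mM HEPES pH 7.5, 150 mM NaCl, 0.02% BSA) were then added for 60 min at room temperature. IC50 came from 8-point non-linear regression.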

Assay [5] relates to MV-4-11 cells. Put plainly: Cell growth inhibition assay (CellTiter-Glo), MV-4-11. It counts as cell-based. The note with it: Homo sapiens, MV4-11, read-out: MV-4-11 TGI. Here is the method: (§2) Cell Growth Inhibition Assay
(§3) The human leukemia cell lines MV-4-11, THP-1 and K-562 were employed to characterize the effect of BET inhibitors on cellular proliferation and viability. Cells were obtained from the American Type Culture Collection (ATCC) and cultured at 37° C. in a humidified 5% CO2 incubator in the following media: MV-4-11: DMEM high glucose (Animed #1-26F01-I), 10% FCS (Animed #2-01F26-I), 4 mM L-Glutamine (Animed #5-10K50), 1 mM Sodium Pyruvate (Animed # G03625P), 1× Penicillin-Streptomycin (Animed # F12478P); K-562: Iscove's MEM (Animed #1-28F16-I), 10% FCS (Animed #2-01F26-I), 4 mM L-Glutamine (Animed #5-10K50), 1× Penicillin-Streptomycin (Animed # F12478P); THP-1: RPMI-1640 (Animed #1-41F01-I), 10% FCS (Animed #2-01F26-I), 2 mM L-Glutamine (Animed #5-10K50), 10 mM HEPES (Animed #5-31F100), 1 mM Sodium Pyruvate (Animed # G03625P), 1× Penicillin-Streptomycin (Animed # F12478P). The AML lines MV-4-11 and THP-1 are very sensitive to BET inhibitors and show massive cell death upon BET inhibition (Zuber et al., Nature, 478 (2011), 524-8). Compound-mediated suppression of cell proliferation/viability was assessed by quantification of cellular ATP levels using the CellTiter-Glo (CTG) reagent (Promega). Briefly, cells were seeded in 20 μl fresh medium into 384-well plates, followed by addition of 5 μL medium containing compound dilutions at 5-fold their final intended concentration. Dose-response effects were assessed by 3-fold serial dilutions of the test compound, starting at 10 μM. Following incubation of the cells for days at 37° C. and 5% CO2, the effect of inhibitors on cell viability was quantified following addition of 20 μl CTG and luminescence quantification (integration time: 100 ms) as per vendor manual, using a correspondingly equipped Tecan M200 multi-mode platereader (TECAN, Switzerland). For data analysis, the assay background value determined in wells containing medium, but no cells, was subtracted from all data points. To enable differentiation of cytotoxic from cytostatic compounds, the number of viable cells is assessed relative to that observed at the time of compound addition using a separate cell plate (day 0). The effect of a particular test compound concentration on cell proliferation/viability is expressed as percentage of the background- and day 0-corrected luminescence reading obtained for cells treated with vehicle only (DMSO, 0.1% final concentration), which is set as 100%, whereas that luminescence reading for wells containing medium is set as −100%. Compound concentrations leading to half-maximal (IC50) and total growth inhibition (TGI) were determined using standard four parameter curve fitting.
(ATP-based viability assays read luminescence as a measure of living cells.)

Assay [6] has as its system THP-1 cells. Put plainly: Cell growth inhibition assay (CellTiter-Glo), THP-1. It counts as cell-based. To be noted: Homo sapiens, read-out: THP-1 TGI. How it is done:
as §2, §3

Assay [7] relates to K-562 cells. Kind of assay: Cell growth inhibition assay (CellTiter-Glo), K-562. It counts as cell-based, human. The note with it: Homo sapiens, K562, read-out: K-562 TGI. How it is done:
as §2, §3

His-Brd3(20-477), sequence (Q15059 20-477): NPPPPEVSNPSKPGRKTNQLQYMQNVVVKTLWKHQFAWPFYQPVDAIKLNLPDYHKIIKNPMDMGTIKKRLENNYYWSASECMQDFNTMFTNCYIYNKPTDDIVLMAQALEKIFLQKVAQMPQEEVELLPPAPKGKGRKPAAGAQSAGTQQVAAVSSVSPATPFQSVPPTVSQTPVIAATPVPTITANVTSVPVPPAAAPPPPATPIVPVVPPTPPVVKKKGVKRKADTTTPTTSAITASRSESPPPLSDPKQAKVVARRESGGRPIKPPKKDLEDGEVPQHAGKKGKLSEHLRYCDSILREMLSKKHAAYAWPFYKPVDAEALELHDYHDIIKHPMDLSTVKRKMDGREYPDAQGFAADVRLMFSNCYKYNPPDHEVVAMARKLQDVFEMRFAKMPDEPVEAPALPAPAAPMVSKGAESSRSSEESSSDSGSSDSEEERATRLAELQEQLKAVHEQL
His-CREBBP (1081-1197) bromodomain, sequence (Q92793 1081-1197): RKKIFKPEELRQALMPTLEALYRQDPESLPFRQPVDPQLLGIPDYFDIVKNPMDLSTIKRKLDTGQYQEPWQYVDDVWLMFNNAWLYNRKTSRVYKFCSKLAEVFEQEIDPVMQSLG
His-Brd2(60-472), sequence (P25440 60-472): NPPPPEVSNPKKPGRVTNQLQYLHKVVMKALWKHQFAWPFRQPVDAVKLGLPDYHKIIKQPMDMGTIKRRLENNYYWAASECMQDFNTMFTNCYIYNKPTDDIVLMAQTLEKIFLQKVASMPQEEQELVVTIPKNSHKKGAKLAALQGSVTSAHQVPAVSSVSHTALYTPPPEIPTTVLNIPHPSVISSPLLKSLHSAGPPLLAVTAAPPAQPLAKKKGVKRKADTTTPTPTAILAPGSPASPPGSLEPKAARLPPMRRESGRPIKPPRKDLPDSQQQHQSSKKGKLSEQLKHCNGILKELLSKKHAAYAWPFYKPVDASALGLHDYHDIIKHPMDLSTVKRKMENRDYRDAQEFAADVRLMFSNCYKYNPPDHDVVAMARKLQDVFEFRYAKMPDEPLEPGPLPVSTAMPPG

On to `Cc1[nH]nc2c1C(c1ccc(Cl)cc1)N(c1cc(C)c(=O)n(C)c1)C2=O` (centres unmarked) [Example 27, 4-(4-chlorophenyl)-5-(1,5-dimethyl-6-oxo-1,6-dihydropyridin-3-yl)-3-methyl-4,5-dihydropyrrolo[3,4-c]pyrazol-6(2H)-one], for which the IC50 in assay [1] turned out to be 0.095 µM; in assay [2] it was 0.31 µM; in assay [3], 0.18 µM; in assay [4], 3.8 µM. In addition, the IC (total growth inhibition) was 0.158 µM in assay [5], 0.363 µM in assay [6] and above 10 µM in assay [7].

As to `Cn1cc(N2C(=O)c3c(cnn3C3CC3)C2c2ccc(Cl)cc2)cc(Cl)c1=O` (centres unmarked) [Example 35, 5-(5-chloro-1-methyl-6-oxo-1,6-dihydropyridin-3-yl)-4-(4-chlorophenyl)-1-cyclopropyl-4,5-dihydropyrrolo[3,4-c]pyrazol-6(1H)-one], the IC50 came to 0.15 µM in assay [1], 0.14 µM in assay [2], 0.16 µM in assay [3] and 7.4 µM in assay [4]. In addition, the IC (total growth inhibition) in assay [5] was 0.23 µM; in assay [6] it was 0.427 µM; in assay [7], above 10 µM.

In the case of `Cc1cc(N2C(=O)c3c(cnn3C(C)C)C2c2ccc(Cl)cc2)cn(C)c1=O` (centres unmarked) [Example 36, 4-(4-chlorophenyl)-5-(1,5-dimethyl-6-oxo-1,6-dihydropyridin-3-yl)-1-isopropyl-4,5-dihydropyrrolo[3,4-c]pyrazol-6(1H)-one], the IC50 in assay [1] is 0.066 µM; in assay [2] it was 0.057 µM; in assay [3], 0.059 µM; in assay [4], 3.6 µM. The values for the IC (total growth inhibition) in assay [5], in assay [6] and in assay [7] were 0.0927 µM, 0.191 µM and above 10 µM, respectively.

Consider `Cc1cc(N2C(=O)c3c(c(C(F)(F)F)nn3C3CC3)C2c2ccc(Cl)cc2)cn(C)c1=O` (centres unmarked) [Example 45, 4-(4-chlorophenyl)-1-cyclopropyl-5-(1,5-dimethyl-6-oxo-1,6-dihydropyridin-3-yl)-3-(trifluoromethyl)-4,5-dihydropyrrolo[3,4-c]pyrazol-6(1H)-one], for which the IC50 in assay [1] amounted to 0.085 µM; in assay [2] it was 0.06 µM; in assay [3], 0.1 µM; in assay [4], 4.8 µM. For the same compound, the figures for the IC (total growth inhibition) in assay [5], in assay [6] and in assay [7] were 0.373 µM, 0.698 µM and above 10 µM, respectively.

Consider `COc1ncc(-n2nc3c(c2C(C)C)C(c2ccc(Cl)cc2)N(c2cc(C)c4onc(C)c4c2)C3=O)c(OC)n1` (centres unmarked) [Example 46, 4-(4-chlorophenyl)-2-(2,4-dimethoxypyrimidin-5-yl)-5-(3,7-dimethylbenzo[d]-isoxazol-5-yl)-3-isopropyl-4,5-dihydropyrrolo[3,4-c]pyrazol-6(2H)-one], for which the IC50 in assay [1] came to 0.087 µM; in assay [2], 0.13 µM; in assay [3], 0.1 µM; in assay [4], 4.7 µM. The IC (total growth inhibition) was 0.166 µM in assay [5], 0.323 µM in assay [6] and above 10 µM in assay [7].

Take `COc1ncc(-n2nc3c(c2C(F)(F)F)C(c2ccc(Cl)cc2)N(c2cc(Cl)c(=O)n(C)c2)C3=O)c(OC)n1` (centres unmarked) [Example 47, 5-(5-chloro-1-methyl-6-oxo-1,6-dihydropyridin-3-yl)-4-(4-chlorophenyl)-2-(2,4-dimethoxypyrimidin-5-yl)-3-(trifluoromethyl)-4,5-dihydropyrrolo[3,4-c]pyrazol-6(2H)-one]: the IC50 came out at 0.27 µM in assay [1], 0.21 µM in assay [2], 0.28 µM in assay [3] and 1.5 µM in assay [4]. For the same compound, the IC (total growth inhibition) was 0.158 µM in assay [5], 0.755 µM in assay [6] and above 10 µM in assay [7].

For the compound `COc1ncc(-n2nc3c(c2C)C(c2ccc(Cl)cc2)N(c2cc(C)c(=O)n(C)c2)C3=O)c(OC)n1` (centres unmarked) [Example 56, 4-(4-chlorophenyl)-2-(2,4-dimethoxypyrimidin-5-yl)-5-(1,5-dimethyl-6-oxo-1,6-dihydropyridin-3-yl)-3-methyl-4,5-dihydropyrrolo[3,4-c]pyrazol-6(2H)-one], the IC50 in assay [1] was determined as 0.095 µM; in assay [2] it was 0.069 µM; in assay [3], 0.061 µM; in assay [4], 0.56 µM. The IC (total growth inhibition) in assay [5] was 0.0981 µM; in assay [6] it was 0.124 µM; in assay [7], above 10 µM.

As for `Cc1nn(C)c2c1C(c1ccc(Cl)cc1)N(c1cc(C)c(=O)n(C)c1)C2=O` (centres unmarked) [Example 57, 4-(4-chlorophenyl)-5-(1,5-dimethyl-6-oxo-1,6-dihydropyridin-3-yl)-1,3-dimethyl-4,5-dihydropyrrolo[3,4-c]pyrazol-6(1H)-one], the IC50 in assay [1] was found to be 0.12 µM; in assay [2], 0.27 µM; in assay [3], 0.13 µM; in assay [4] it was 6.8 µM. The figures for the IC (total growth inhibition) in assay [5], in assay [6] and in assay [7] were 0.109 µM, 0.24 µM and above 10 µM, respectively.

As to `Cc1nn(C2CC2)c2c1C(c1ccc(Cl)cc1)N(c1cn(C)c(=O)c3[nH]ccc13)C2=O` (centres unmarked) [Example 160, 4-(4-(4-chlorophenyl)-1-cyclopropyl-3-methyl-6-oxopyrrolo[3,4-c]pyrazol-5(1H,4H,6H)-yl)-6-methyl-1H-pyrrolo[2,3-c]pyridin-7(6H)-one], the IC50 in assay [1] was 0.03 µM; in assay [3], 0.052 µM; in assay [4], 4.4 µM. In addition, the IC (total growth inhibition) in assay [5] was 0.102 µM; in assay [6], 0.107 µM; in assay [7] it was above 10 µM.

Regarding `COc1ccccc1-n1nc(C)c2c1C(=O)N(c1cc(C)c3nnc(C)n3c1)C2c1ccc(F)cc1F` (centres unmarked) [Example 177, 4-(2,4-difluorophenyl)-5-(3,8-dimethyl-[1,2,4]triazolo[4,3-a]pyridin-6-yl)-1-(2-methoxyphenyl)-3-methyl-4,5-dihydropyrrolo[3,4-c]pyrazol-6(1H)-one], the results for the IC50 in assay [1], in assay [3] and in assay [4] were 0.016 µM, 0.03 µM and 11 µM, respectively. In addition, the IC (total growth inhibition) is 0.114 µM in assay [5], 0.153 µM in assay [6] and above 10 µM in assay [7].

Take `Cc1n[nH]c2c1C(c1ccc(Cl)cc1F)N(c1cc(C)c3nnc(C)n3c1)C2=O` (centres unmarked) [Example 183, 4-(4-chloro-2-fluorophenyl)-5-(3,8-dimethyl-[1,2,4]triazolo[4,3-a]pyridin-6-yl)-3-methyl-4,5-dihydropyrrolo[3,4-c]pyrazol-6(2H)-one]: the IC50 is 0.082 µM in assay [1], 0.075 µM in assay [3] and above 24 µM in assay [4]. Besides, the values for the IC (total growth inhibition) in assay [5], in assay [6] and in assay [7] were 0.126 µM, 0.314 µM and above 10 µM, respectively.

For the compound `COc1ccccc1-n1nc(C)c2c1C(=O)N(c1cc(C)c3nnc(C)n3c1)C2c1ccc(Cl)cc1F` (centres unmarked) [Example 187, 4-(4-chloro-2-fluorophenyl)-5-(3,8-dimethyl-[1,2,4]triazolo[4,3-a]pyridin-6-yl)-1-(2-methoxyphenyl)-3-methyl-4,5-dihydropyrrolo[3,4-c]pyrazol-6(1H)-one], the IC50 in assay [1] worked out at 0.027 µM; in assay [3] it was 0.042 µM; in assay [4], 33 µM. The figures for the IC (total growth inhibition) in assay [5], in assay [6] and in assay [7] were 0.209 µM, 0.223 µM and above 10 µM, respectively.
